Reference: patent publication EP2439195B1, “NAPHTHALENE CARBOXAMIDE DERIVATIVES AS INHIBITORS OF PROTEIN KINASE AND HISTONE DEACETYLASE, PREPARATION METHODS AND USES THEREOF” (Shenzhen Chipscreen Biosciences, Ltd., priority 2009, dated 2010)

Legend:
Type in all cases: in vivo
human HCT-8 colon cancer [1] = assay: Nude mice tumor transplanted from human HCT-8 colon cancer (Example 54); conditions: for TGI (%): tumor growth inhibition
Method: (§1) Female nu/nu mice of 18∼20g were fed by normal diet for 3 days. Then the cultured HCT-8 human colon cancer cells were implanted into the armpit of 50 mice. […] Each group had 8 mice. One group was treated with vehicle. One group was treated with Sutent, the positive control drug. Two groups were treated with compound 33 at different concentrations. The other two groups were treated with compound 34 at different concentrations. Each group was dosed orally once a day for 20 days. […] The tumor growth inhibition of each group was calculated using the following formula: {[(the average tumor weight of control group)-(the average tumor weight of test group)]/(the average tumor weight of control group)} × 100%. [formula] The experimental results are shown in Table 8 and Figure 4.

human HCT-8 colon cancer [2] = assay: Nude mice tumor transplanted from human HCT-8 colon cancer (Example 55); conditions: 20 days; for TGI (%): tumor growth inhibition
Method: Female nu/nu mice of 18∼20g were fed by normal diet for 3 days. Then the cultured HCT-8 human colon cancer cells were implanted into the armpit of 50 mice. […] One group was treated with vehicle. One group was treated with Sutent, the positive control drug. Two groups were treated with compound 33 at different concentrations. The other two groups were treated with compound 37 at different concentrations. Compound 33 was administered twice a day with an interval of 6 hours. For other groups, administration was performed once a day. Each group was dosed orally for 20 days. […] The tumor growth inhibition of each group was calculated using the following formula: {[(the average tumor weight of control group)-(the average tumor weight of test group)]/(the average tumor weight of control group)} × 100%. [formula] The experimental results are shown in Table 9 and Figure 5.

[3] = system: human SSMC7721 liver cancer; assay: Nude mice tumor transplanted from human SSMC7721 liver cancer (Example 56); conditions: for TGI (%): tumor growth inhibition
Method: as §1, with “cultured SSMC7721” for “cultured HCT-8”, “human liver” for “human colon”, “compound 37” for “compound 34”, “for 30” for “for 20”, “Table 10” for “Table 8”, “Figure 6. Table10” for “Figure 4.”

human A549 lung cancer = assay: Nude mice tumor transplanted from human A549 lung cancer (Example 51); conditions: for TGI (%): tumor growth inhibition
Method: Then the cultured A549 human lung cancer cells were implanted into the armpit of 50 mice. […] Each group had 8 mice. One group was treated with vehicle. One group was treated with Sutent, the positive control drug. […] Each group was dosed orally once a day for 24 days. Tumor volumes along with body weights were recorded twice per week. On the next day after 24 doses, the mice were killed, and tumors were weighed. The tumor growth inhibition of each group was calculated using the following formula: {[(the average tumor weight of control group)-(the average tumor weight of test group)]/(the average tumor weight of control group)}×100%.

human HCT-8 colon cancer [4] = assay: Nude mice tumor transplanted from human HCT-8 colon cancer (Example 52); conditions: for Tumor weight: killed after 20 doses; for TGI (%): tumor growth inhibition
Method: Female nu/nu mice of 18∼20g were fed by normal diet for 3 days. Then the cultured HCT-8 human colon cancer cells were implanted into the armpit of 50 mice. […] Each group had 8 mice. One group was treated with vehicle. One group was treated with Sutent, the positive control drug. […] Each group was dosed orally once a day for 24 days. Tumor volumes along with body weights were recorded twice per week. On the next day after 20 doses, the mice were killed, and tumors were weighed. The tumor growth inhibition of each group was calculated using the following formula: {[([…])} × 100%. [formula] The experimental results are shown in Table 6 and Figure 2.

[5] = 30 mg/kg orally once a day for 20 days
[6] = 60 mg/kg orally once a day for 20 days
[7] = 30x2 mg/kg orally twice a day with an interval of 6 hours
[8] = 60x2 mg/kg orally twice a day with an interval of 6 hours
[9] = 30 mg/kg orally once a day for 30 days
[10] = 60 mg/kg orally once a day for 30 days
[11] = 5 mg/kg orally once a day for 24 days
[12] = 10 mg/kg orally once a day for 24 days
[13] = 20 mg/kg orally once a day for 24 days
[14] = 40 mg/kg orally once a day for 24 days

COc1ccc2c(Oc3ccc4c(C(=O)NCc5ccc(C(=O)Nc6ccccc6N)cc5)cccc4c3)ccnc2c1 [Compound 33, N-(4-((2-aminophenyl)carbamoyl)benzyl)-6-(7-methoxyquinolin-4-yloxy)-1-naphthamide]
Tumor weight (human HCT-8 colon cancer [1]; [5]): 2.31 ± 0.43 g
Body weight (g) end (human HCT-8 colon cancer [1]; [5]): 21.1 ± 2.2 g
Body weight (g) start (human HCT-8 colon cancer [1]; [5]): 19.0 ± 1.3 g
TGI (%) (human HCT-8 colon cancer [1]; [5]): 43.3%
Tumor weight (human HCT-8 colon cancer [1]; [6]): 1.98 ± 0.61 g
Body weight (g) end (human HCT-8 colon cancer [1]; [6]): 21.4 ± 1.5 g
Body weight (g) start (human HCT-8 colon cancer [1]; [6]): 19.4 ± 0.8 g
TGI (%) (human HCT-8 colon cancer [1]; [6]): 51.5%
Tumor weight (human HCT-8 colon cancer [2]; [7]): 0.73 ± 0.36 g
Body weight (g) end (human HCT-8 colon cancer [2]; [7]): 22.6 ± 1.6 g
Body weight (g) start (human HCT-8 colon cancer [2]; [7]): 21.1 ± 1.2 g
TGI (%) (human HCT-8 colon cancer [2]; [7]): 88.1%
Tumor weight (human HCT-8 colon cancer [2]; [8]): 0.45 ± 0.05 g
Body weight (g) end (human HCT-8 colon cancer [2]; [8]): 19.0 ± 1.8 g
Body weight (g) start (human HCT-8 colon cancer [2]; [8]): 20.1 ± 0.9 g
TGI (%) (human HCT-8 colon cancer [2]; [8]): 92.6%
Tumor weight [3, 9]: 1.63 ± 0.47 g
Body weight (g) end [3, 9]: 24.0 ± 1.7 g
Body weight (g) start [3, 9]: 20.8 ± 0.5 g
TGI (%) [3, 9]: 27.8%
Tumor weight [3, 10]: 1.48 ± 0.89 g
Body weight (g) end [3, 10]: 25.4 ± 2.8 g
Body weight (g) start [3, 10]: 21.4 ± 1.3 g
TGI (%) [3, 10]: 34.4%

COc1ccc2c(Oc3ccc4c(C(=O)Nc5ccccc5N)cccc4c3)ccnc2c1 [Compound 31, N-(2-aminophenyl)-6-(7-methoxyquinolin-4-yloxy)-1-naphthamide]
Tumor weight (human A549 lung cancer; [11]): 2.20 ± 0.57 g
Body weight (g) end (human A549 lung cancer; [11]): 24.6 ± 1.3 g
Body weight (g) start (human A549 lung cancer; [11]): 21.1 ± 0.6 g
Tumor weight (human A549 lung cancer; [12]): 2.13 ± 0.51 g
Body weight (g) end (human A549 lung cancer; [12]): 25.1 ± 1.3 g
Body weight (g) start (human A549 lung cancer; [12]): 19.9 ± 1.3 g
Tumor weight (human A549 lung cancer; [13]): 1.50 ± 0.41 g
Body weight (g) end (human A549 lung cancer; [13]): 24.2 ± 0.7 g
Body weight (g) start (human A549 lung cancer; [13]): 20.6 ± 1.1 g
TGI (%) (human A549 lung cancer; [13]): 64.3%
Tumor weight (human A549 lung cancer; [14]): 1.06 ± 0.54 g
Body weight (g) end (human A549 lung cancer; [14]): 22.6 ± 2.4 g
Body weight (g) start (human A549 lung cancer; [14]): 20.0 ± 0.9 g
TGI (%) (human A549 lung cancer; [14]): 74.8%
Body weight (g) end (human HCT-8 colon cancer [4]; 2.5 mg/kg orally once a day): 24.5 ± 1.1 g
Tumor weight (human HCT-8 colon cancer [4]; 2.5 mg/kg orally once a day): 2.18 ± 1.28 g
Body weight (g) start (human HCT-8 colon cancer [4]; 2.5 mg/kg orally once a day): 20.3 ± 0.8 g
TGI (%) (human HCT-8 colon cancer [4]; 2.5 mg/kg orally once a day): 54.5%
Body weight (g) end (human HCT-8 colon cancer [4]; 5 mg/kg orally once a day): 24.8 ± 1.5 g
Tumor weight (human HCT-8 colon cancer [4]; 5 mg/kg orally once a day): 0.78 ± 0.25 g
Body weight (g) start (human HCT-8 colon cancer [4]; 5 mg/kg orally once a day): 21.6 ± 1.4 g
TGI (%) (human HCT-8 colon cancer [4]; 5 mg/kg orally once a day): 83.8%
Body weight (g) end (human HCT-8 colon cancer [4]; 10 mg/kg orally once a day): 23.7 ± 0.8 g
Tumor weight (human HCT-8 colon cancer [4]; 10 mg/kg orally once a day): 0.46 ± 0.15 g
Body weight (g) start (human HCT-8 colon cancer [4]; 10 mg/kg orally once a day): 20.7 ± 1.1 g
TGI (%) (human HCT-8 colon cancer [4]; 10 mg/kg orally once a day): 90.3%
Body weight (g) end (human HCT-8 colon cancer [4]; 20 mg/kg orally once a day): 22.5 ± 1.6 g
Tumor weight (human HCT-8 colon cancer [4]; 20 mg/kg orally once a day): 0.19 ± 0.06 g
Body weight (g) start (human HCT-8 colon cancer [4]; 20 mg/kg orally once a day): 20.5 ± 1.3 g
TGI (%) (human HCT-8 colon cancer [4]; 20 mg/kg orally once a day): 96.1%
